What was measured:
Assay type in all cases: in vivo, mouse
vGAT = vGAT synaptic puncta immunohistochemistry; settings: 5×FAD mice, visual cortex
Procedure: (§1) Loss of synapses and neurons are closely associated with higher neuroinflammatory response and cognitive decline in AD. Therefore, synaptic markers in the visual cortex of Plx3397 and/or GENUS treated mice were evaluated. […] Thus, whether these treatments had any effect on neuronal density by immunohistochemical analysis of neuronal marker NeuN was examined (Synaptic Systems, #266 004) positive cells (FIG. 4A).
vGAT and vGLUT1 puncta: LSM 710, with a 40× objective, was used to acquire the images. The entire […] thickness of the slices was acquired in Z stacks—80 per image (step of 0.5 μm). The spot-count inbuilt function in Imarisx64 9.3 was used to count cells automatically.
vGAT and vGLUT1 puncta: LSM 710, with a 40× objective, was used to acquire the images. The entire […] thickness of the slices was acquired in Z stacks—80 per image (step of 0.5 μm). The spot-count inbuilt function in Imarisx64 9.3 (cohortl) and 9.7 (cohort 2) was used to count cells automatically.

synaptophysin = experiment: Synaptophysin western blot and immunohistochemistry; settings: 5×FAD mice
Procedure: as §1
The visual cortex was dissected out and snap-frozen in liquid nitrogen and stored in an −80° C. freezer until processing. Samples were homogenized using a glass homogenizer with RIPA (50 mM Tris HCl pH 8.0, 150 mM NaCl, 1% NP-40, 0.5% sodium deoxycholate, 0.1% SDS) buffer which contains protease and phosphatase inhibitor. The concentration of proteins in samples were quantified using a Bio-Rad protein assay. Equal concentrations of proteins were prepared and added with SDS—sample buffer. […] of protein was loaded onto 4-20% polyacrylamide gels and electrophoresed. Protein was transferred from acrylamide gels to nitrocellulose membranes for 12 min (Semi-dry system, Bio-Rad). Membranes were blocked using BSA (5% w/v) diluted in TBS containing 0.1% Tween-20 (TBSTw), then incubated in primary antibodies overnight at 4° C. The following day, they were washed three times with TBSTw and incubated with horseradish peroxidase-linked secondary antibodies (GE Healthcare) at room temperature for 60 min. After three further washes with TBSTw, membranes were treated with chemiluminescence substrates and the blots were visualized (Chem doc, Bio-Rad). Signal intensities were quantified using ImageJ 1.46q and normalized to values of loading control.
These observations led to examination of the effect of Plx3397 administration on neuronal integrity. […]
The brain was perfused with PBS and fixed with 4% PFA. […] Signal intensities were quantified using ImageJ 1.46q and normalized to values of loading control.

5×FAD mice = experiment: Novel object recognition test in 5×FAD mice; settings: chance level 50%, control 51.33±4.15
Procedure: Given the neuroprotective effect of Plx3397+GENUS treatment, whether this treatment also impacted learning and memory was evaluated. Mice were tested in an open field (OF) and assessed for changes in anxiety and activity levels, followed by a novel object recognition (NOR) test of memory. 10-month-1d 5×FAD mice were treated with Plx3397. Following 20 days administration of Plx3397 chow, untreated- and Plx3397 treated 5×FAD mice (which continued PLX administration) were subjected to 30 days of daily GENUS. Mice were tested in OF and NOR during the last week of these treatments. […] Next, CK-p25 mice were treated for 42 days and assessed behavioral performance.
For OF, mice were introduced into an open field box (dimensions: length=460 mm, width=460 mm and height=400 mm; TSE-Systems) and were tracked using Noldus (Ethovision) for 12 min, with time spent in the center and peripheral area of the arena measured. […] Mouse behavior was monitored for 7 min. Time spent exploring both the familiar and novel objects was recorded using Noldus and computed offline. Percentage of novelty preference index was calculated as follows: time exploring novel object (Nt) divided by total time exploring novel and familiar (Ft) objects and presented in %−{[Nt/Nt+Ft]*100}.

Which vGAT synaptic puncta (vGAT; IHC) does the source give for FC(F)(F)c1ccc(CNc2ccc(Cc3c[nH]c4ncc(Cl)cc34)cn2)cn1 [Plx3397, Pexidartinib] here?
The vGAT synaptic puncta was 109.9±2.235 % of no treatment control.

What about the “vGAT positive synaptic puncta” value (vGAT; vs untreated) of the same compound?
The value was “significant increase”.

And the synaptophysin (synaptophysin; hippocampus, chronic Plx3397 vs control)?
The synaptophysin was “increased”.

And the synaptophysin signals (synaptophysin; visual cortex, IHC, Plx3397 50 days)?
The synaptophysin signals was 6524128709±177336289 au.

What about the “synaptophysin level (western blot)” value (synaptophysin; visual cortex, control 100±12.03) of the same compound?
The value was 185.3±23.83.

What about the “preference for the novel object in the NOR test (novelty index)” value (5×FAD mice) of the same compound?
The value was 57.55±7.00%.
